Read-outs that look alike come from different tables or passages of the source.
System: STAT5
Assay: Immunoblotting (Western blot) analysis of STAT5 degradation efficiency of degraders in treated cells
Format: cell-based
Description: Evaluation of the degradation efficiency of degraders may be accomplished by immunoblotting analysis. The representative general protocol is the following:
Cells are maintained in the appropriate culture medium with 10% FBS at 37° C. and an atmosphere of 5% CO2. Cell lines are used within three months of thawing fresh vials. Cells are lysed 1× Cell Lysis Buffer (Cell Signaling Technology, #9803), resolved by SDS-PAGE NuPAGE gel (Thermo Fisher Scientific), and transferred to a PVDF membrane (Millipore). Membranes are blocked using Odyssey TBS Blocker Buffer (LI-COR). IRDye 680RD and 800CW Dye-labeled secondary antibodies (LI-COR) are used. The washed membranes are scanned using Odyssey CLx imager (LI-COR). The intensity of Western blot signaling is quantitated using the Odyssey software. Primary antibodies used are: STAT5 Rabbit mAb (Cell Signaling Technology, #94205), STAT6 Rabbit mAb (Cell Signaling Technology, #5397) and GAPDH mouse monoclonal antibody (Santa Cruz Biotechnology, sc-47724).
To evaluate the degradation efficiency of degraders, immunoblotting analysis was performed. The general protocol is the following.
About 1 million cells for each data point were treated with compounds at indicated concentrations and durations. Untreated and treated cells in cell culture medium were transferred into tubes, followed by centrifugation at 3,000 rpm and 4° C. for 6 min Supernatants were removed from tubes and radioimmunoprecipitation assay (RIPA) lysis buffer supplemented with 1% protease inhibitor cocktail (Fisher Scientific cat. PI87786) and phosphatase inhibitor (Roche cat. 04906837001) were added to tubes containing the remaining cell pellets. The tubes were then left on ice for 30 min and placed in a −80° C. freezer. Subsequently they were thawed in 37° C. water, then centrifuged at 14,000 rpm for 15 min and the cell lysates transferred to new tubes. The concentration of total proteins in each tube was calculated using the Pierce BCA protein Assay kit (cat. 23225). Based on the calculated protein concentration, cell lysates containing approximately the same amount of proteins were transferred to new tubes, then distilled water and 4× Protein Sample Loading Buffer for Western Blots (LI-COR cat. 928-40004) supplemented with 20% of mercaptoethanol (Sigma Aldrich cat. M6250) were added on ice. The cell lysates were then reduced and denatured at 95° C. for 5 min. From the tubes containing cell lysates an equal amount of protein samples (20-40 μg) was loaded into precast 8%, 10%, 4%-12%, or 4%-20% Tris-glycine gels (Novex) filled with Tris-glycine SDS running buffer. After the proteins were resolved, they were transferred onto Immobile-FL PVDF Membrane (Millipore Sigma cat. IPFL00010), using Mini Trans-Blot Electrophoretic Transfer Cell (Bio-Rad 1703930). The membranes were blocked with Intercept Blocking Buffer (LI-COR cat. 927-70001) in LI-COR Western Blot boxes for 1 h at rt. The membranes were washed with 1× Tris-buffered saline-Tween-20 (TBST, 1× solution was made from 20×TBST solution, ThermoFisher Scientific cat. 28360) for 5 min 4 times. The membranes were incubated overnight at 4° C. in Intercept Blocking Buffer supplemented with primary antibodies (normally antibody:buffer 1:1000) and Tween-20. The membranes were washed with TBST for 5 min 4 times and were incubated with Intercept Blocking Buffer supplemented with IRDye 800CE Secondary Antibodies, IRDye 680RD Secondary Antibodies (LI-COR biosciences), Tween-20, and 10% SDS solution, for 1 h at rt. The membranes were then washed with TBST for 5 min 4 times and rinsed with deionized water before drying and scanning with Odyssey Dlx Amazing System (LI-COR). The immunoblots were finally quantified by the software.

[1] = KU-812 cells, read-out: DC50 S5 KU-812
[2] = SKNO1 cells, read-out: DC50 S5 SKNO1
[3] = MOLM-16 cells, numeric bound, read-out: DC50 S5 MOLM-16

SMILES | DC50 [1] [nM] | DC50 [2] [nM] | DC50 [3] [nM] | DC50 (MOLM-16 cells, class symbols, read-out: DC50 S5 MOLM-16) [nM]
CC(C)(C)[C@H](NC(=O)c1cc2cc(C(F)(F)P(=O)(O)O)ccc2s1)C(=O)N1C[C@@H](OCc2ccccc2)C[C@H]1C(=O)N(CCC(=O)NCCC#Cc1cccc2c1CN(C1CCC(=O)NC1=O)C2=O)c1ccc(Br)cc1 (stereo partly drawn) [Compound 622, ((2-(((2S)-1-((2S,4S)-4-(benzyloxy)-2-((4-bromophenyl)(3-((4-(2-(2,6-dioxopiperidin-3-yl)-1-oxoisoindolin-4-yl)but-3-yn-1-yl)amino)-3-oxopropyl)carbamoyl)pyrrolidin-1-yl)-3,3-dimethyl-1-oxobutan-2-yl)carbamoyl)benzo[b]thiophen-5-yl)difluoromethyl)phosphonic acid] |  |  | > 300 | 
CC(C)(C)[C@H](NC(=O)c1cc2cc(C(F)(F)P(=O)(O)O)ccc2s1)C(=O)N1C[C@H](OCc2ccccc2)C[C@H]1C(=O)N(CCC(=O)NCC#Cc1cccc2c1CN(C1CCC(=O)NC1=O)C2=O)c1ccc(Br)cc1 (stereo partly drawn) [Compound 616, ((2-(((2S)-1-((2S,4R)-4-(benzyloxy)-2-((4-bromophenyl)(3-((3-(2-(2,6-dioxopiperidin-3-yl)-1-oxoisoindolin-4-yl)prop-2-yn-1-yl)amino)-3-oxopropyl)carbamoyl)pyrrolidin-1-yl)-3,3-dimethyl-1-oxobutan-2-yl)carbamoyl)benzo[b]thiophen-5-yl)difluoromethyl)phosphonic acid] |  |  | > 300 | 
CC(C)(C)[C@H](NC(=O)c1cc2cc(C(F)(F)P(=O)(O)O)ccc2s1)C(=O)N1CCC[C@H]1C(=O)N(CCC(=O)NCCCC#Cc1cccc2c1CN(C1CCC(=O)NC1=O)C2=O)c1ccc(I)cc1 (stereo partly drawn) [Compound 637, ((2-(((2S)-1-((2S)-2-((3-((5-(2-(2,6-dioxopiperidin-3-yl)-1-oxoisoindolin-4-yl)pent-4-yn-1-yl)amino)-3-oxopropyl)(4-iodophenyl)carbamoyl)pyrrolidin-1-yl)-3,3-dimethyl-1-oxobutan-2-yl)carbamoyl)benzo[b]thiophen-5-yl)difluoromethyl)phosphonic acid] |  | 100 to 1000 | > 300 | 
CC(C)(C)[C@H](NC(=O)c1cc2cc(C(F)(F)P(=O)(O)O)ccc2s1)C(=O)N1CCC[C@H]1C(=O)N(CCC(=O)NCCCC#Cc1cccc2c1CN(C1CCC(=O)NC1=O)C2=O)c1ccc(Cl)cc1 (stereo partly drawn) [Compound 635, ((2-(((2S)-1-((2S)-2-((4-chlorophenyl)(3-((5-(2-(2,6-dioxopiperidin-3-yl)-1-oxoisoindolin-4-yl)pent-4-yn-1-yl)amino)-3-oxopropyl)carbamoyl)pyrrolidin-1-yl)-3,3-dimethyl-1-oxobutan-2-yl)carbamoyl)benzo[b]thiophen-5-yl)difluoromethyl)phosphonic acid] | 1000 to 10000 | 1000 to 10000 | > 300 | 
CC(C)(C)[C@H](NC(=O)c1cc2cc(C(F)(F)P(=O)(O)O)ccc2s1)C(=O)N1CCC[C@H]1C(=O)N(CCC(=O)N1CCC(Nc2cccc3c2CN(C2CCC(=O)NC2=O)C3=O)CC1)c1ccc(Br)cc1 (stereo partly drawn) [Compound 615, ((2-(((2S)-1-((2S)-2-((4-bromophenyl)(3-(4-((2-(2,6-dioxopiperidin-3-yl)-1-oxoisoindolin-4-yl)amino)piperidin-1-yl)-3-oxopropyl)carbamoyl)pyrrolidin-1-yl)-3,3-dimethyl-1-oxobutan-2-yl)carbamoyl)benzo[b]thiophen-5-yl)difluoromethyl)phosphonic acid] | > 10000 |  | > 300 | 
CC(C)(C)[C@H](NC(=O)c1cc2cc(C(F)(F)P(=O)(O)O)ccc2s1)C(=O)N1CCC[C@H]1C(=O)N(CCC(=O)NCCCC#Cc1cccc2c1CN(C1CCC(=O)NC1=O)C2=O)c1cccc(C#N)c1 (stereo partly drawn) [Compound 643, ((2-(((2S)-1-((2S)-2-((3-cyanophenyl)(3-((5-(2-(2,6-dioxopiperidin-3-yl)-1-oxoisoindolin-4-yl)pent-4-yn-1-yl)amino)-3-oxopropyl)carbamoyl)pyrrolidin-1-yl)-3,3-dimethyl-1-oxobutan-2-yl)carbamoyl)benzo[b]thiophen-5-yl)difluoromethyl)phosphonic acid] |  | > 10000 | > 300 | 

Next, values leading:

DC50 [1] [nM] | DC50 [2] [nM] | DC50 [3] [nM] | DC50 (MOLM-16 cells, class symbols, read-out: DC50 S5 MOLM-16) [nM] | SMILES
100 to 1000 | 100 to 1000 |  |  | CN(CCCC#Cc1cccc2c1CN(C1CCC(=O)NC1=O)C2=O)C(=O)CCN(C(=O)[C@@H]1CCCN1C(=O)[C@H](CCc1ccccc1)NC(=O)c1cc2cc(C(F)(F)P(=O)(O)O)ccc2s1)c1ccc(-c2nccs2)cc1 (stereo partly drawn) [Compound 682, ((2-(((2S)-1-((2S)-2-((3-((5-(2-(2,6-dioxopiperidin-3-yl)-1-oxoisoindolin-4-yl)pent-4-yn-1-yl)(methyl)amino)-3-oxopropyl)(4-(thiazol-2-yl)phenyl)carbamoyl)pyrrolidin-1-yl)-1-oxo-4-phenylbutan-2-yl)carbamoyl)benzo[b]thiophen-5-yl)difluoromethyl)phosphonic acid]
 |  |  | 100 to 1000 | CC(C)(C)[C@H](NC(=O)c1cc2cc(C(F)(F)P(=O)(O)O)ccc2s1)C(=O)N1CCC[C@H]1C(=O)N(CCC(=O)NCCCCC#Cc1cccc2c1CN(C1CCC(=O)NC1=O)C2=O)c1ccc(Cl)cc1 (stereo partly drawn) [Compound 638, ((2-(((2S)-1-((2S)-2-((4-chlorophenyl)(3-((6-(2-(2,6-dioxopiperidin-3-yl)-1-oxoisoindolin-4-yl)hex-5-yn-1-yl)amino)-3-oxopropyl)carbamoyl)pyrrolidin-1-yl)-3,3-dimethyl-1-oxobutan-2-yl)carbamoyl)benzo[b]thiophen-5-yl)difluoromethyl)phosphonic acid]
 |  | > 300 |  | CCN1CC[C@H]2CC[C@@H](C(=O)N(CCC(=O)NCCCCC#Cc3cccc4c3CN(C3CCC(=O)NC3=O)C4=O)c3ccc(Br)cc3)N2C(=O)[C@@H](NC(=O)c2cc3cc(C(F)(F)P(=O)(O)O)ccc3s2)C1 (stereo partly drawn) [Compound 628, ((2-(((5S,8S,10aR)-8-((4-bromophenyl)(3-((6-(2-(2,6-dioxopiperidin-3-yl)-1-oxoisoindolin-4-yl)hex-5-yn-1-yl)amino)-3-oxopropyl)carbamoyl)-3-ethyl-6-oxodecahydropyrrolo[1,2-a][1,5]diazocin-5-yl)carbamoyl)benzo[b]thiophen-5-yl)difluoromethyl)phosphonic acid]
 | > 10000 | > 300 |  | CC(C)(C)[C@H](NC(=O)c1cc2cc(C(F)(F)P(=O)(O)O)ccc2s1)C(=O)N1CCC[C@H]1C(=O)N(CCC(=O)NCCCC#Cc1cccc2c1CN(C1CCC(=O)NC1=O)C2=O)c1ccc(Cl)c(F)c1 (stereo partly drawn) [Compound 636, ((2-(((2S)-1-((2S)-2-((4-chloro-3-fluorophenyl)(3-((5-(2-(2,6-dioxopiperidin-3-yl)-1-oxoisoindolin-4-yl)pent-4-yn-1-yl)amino)-3-oxopropyl)carbamoyl)pyrrolidin-1-yl)-3,3-dimethyl-1-oxobutan-2-yl)carbamoyl)benzo[b]thiophen-5-yl)difluoromethyl)phosphonic acid]
 | > 10000 | > 300 |  | CC(C)(C)[C@H](NC(=O)c1cc2cc(C(F)(F)P(=O)(O)O)ccc2s1)C(=O)N1CCC[C@H]1C(=O)N(CCC(=O)NCCCC#Cc1cccc2c1CN(C1CCC(=O)NC1=O)C2=O)c1cccc(C(F)(F)F)c1 (stereo partly drawn) [Compound 645, ((2-(((2S)-1-((2S)-2-((3-((5-(2-(2,6-dioxopiperidin-3-yl)-1-oxoisoindolin-4-yl)pent-4-yn-1-yl)amino)-3-oxopropyl)(3-(trifluoromethyl)phenyl)carbamoyl)pyrrolidin-1-yl)-3,3-dimethyl-1-oxobutan-2-yl)carbamoyl)benzo[b]thiophen-5-yl)difluoromethyl)phosphonic acid]

From patent US20230295197A1, “STAT5 and STAT6 Degraders and Uses Thereof” (REGENTS OF THE UNIVERSITY OF MICHICAN, priority 2022, published 2023)
